{
  "source": "patent US20200146314A1",
  "about": "“TRACE MINERAL COMPOSITION” (Nutreco IP Assets B.V., priority 2017, published 2020)",
  "system": "broiler chickens",
  "assay": "Effect of iron source and level on hemoglobin, hematocrit, performance and iron bioavailability (slope-ratio) of iron-depleted broiler chicks",
  "format": "in vivo",
  "details": "for Efficiency / Gain / Hematocrit / Intake: from day 7",
  "experimental": "Experiments were conducted to determine the effect of trace mineral level and source on hemoglobin, hematocrit and performance of broiler chickens. Bioavailability of iron was determined by the common-intercept multiple linear regression (slope-ratio) method (S. Aoyagi and D. H. Baker, Nutritional evaluation of a copper-methionine complex for chicks, Poult. Sci. 1993; 72:2309-15). For the first 7 days, chicks were fed a semi-purified diet based on dextrose, corn starch and casein (see Table 1), but with a low level of corn in order to encourage food intake. The calculated iron concentration was 25 ppm and the adaptation period was done in order to deplete iron stores received via the egg.\nBeginning on day 7, chicks were provided experimental diets containing the three iron sources added to the basal diet as tabulated below. The three iron sources are commercial grade iron sulphate (FeSO4) (Comparative Example A), siderite (Comparative Example B) and agglomerated particles of starch and crystallites of iron(II) carbonate (Example 1; in accordance with the disclosure) (see Table 2). The agglomerated particles were prepared by grinding siderite to a d90 value below 5 subsequently mixing the ground iron(II) carbonate, starch and water, and spray drying the dispersion. The resulting agglomerated particles have a mean particle size of […]; the content of iron(II) carbonate is 36.94 wt %, based on the total weight of the agglomerated particles.\nBirds were raised in Petersime batteries and all metal (feeders, waterers, raised wire floors) in contact with the birds was stainless steel. Water was deionized.\nStatistical Analysis: Hemoglobin, hematocrit and performance data were regressed against dietary iron level for each source to obtain linear dose response relationships and bioavailability was calculated from the ratio of the slopes to that of FeSO4. Data (excluding the basal treatment) was also analyzed as a […]×4 level factorial arrangement of treatments. Slope ratios were calculated using the 0, 15, and 25 ppm added levels.",
  "key": {"[1]": {"details": "15 ppm added iron in basal diet"}, "[2]": {"details": "25 ppm added iron in basal diet"}},
  "note": "Marks after values point to notes of the source that are not given here.",
  "data": [
    {"smiles": "O=S(=O)([O-])[O-].[Fe+2]", "note": "[Comparative Example A, iron sulphate (FeSO4)]", "values": [
      {"measurement": "Efficiency", "setting": "[1]", "value": 0.59, "unit": "gain/feed"},
      {"measurement": "Gain", "setting": "[1]", "value": 523.9, "unit": "g/chick"},
      {"measurement": "Hematocrit", "setting": "[1]", "value": 38.3, "unit": "%"},
      {"measurement": "Intake", "setting": "[1]", "value": 888.2, "unit": "g/chick"},
      {"measurement": "Efficiency", "setting": "[2]", "value": 0.62, "unit": "gain/feed"},
      {"measurement": "Gain", "setting": "[2]", "value": 548.5, "unit": "g/chick"},
      {"measurement": "Hematocrit", "setting": "[2]", "value": 37.2, "unit": "%"},
      {"measurement": "Intake", "setting": "[2]", "value": 884.0, "unit": "g/chick"},
      {"measurement": "Efficiency, main effect mean for iron source", "setting": "across all levels", "value": 0.61, "unit": "gain/feed"},
      {"measurement": "Gain, main effect mean for iron source", "setting": "across all levels", "value": 531.8, "unit": "g/chick"},
      {"measurement": "Hematocrit, main effect mean for iron source", "setting": "across all levels", "value": 37.3, "unit": "%"},
      {"measurement": "Intake, main effect mean for iron source", "setting": "across all levels", "value": "867.5 ^a g/chick"}
    ]}
  ]
}
